Source: ChEMBL document CHEMBL1132754, “Photosensitizers related to purpurin-18-N-alkylimides: a comparative in vivo tumoricidal ability of ester versus amide functionalities” (Bioorg Med Chem Lett, 2000)

Columns and labels:
[1] = Partition coefficient (logP); type: physicochemical; conditions: octanol/water
[2] = system: Mus musculus; assay: Tumor versus muscle uptake ratio in mice (implanted with RIFtumor)by in vivo reflectance spectroscopy at 5 min, 24 hr and 48 hr post injection (5.0 umol/kg); type: functional, Muscle tissue
[3] = system: Mus musculus; assay: Percent tumor response in mice (implanted with RIF tumor) on day 7 at 24 hours post injection (1.0 umol/kg); type: functional
[4] = system: Mus musculus; assay: The in vivo tumor uptake was determined by reflectance spectroscopy in mouse; type: functional
[5] = system: Mus musculus; assay: Percent tumor response in mice (implanted with RIF tumor) on day 30 after administering the compound (1.0 umol/kg); type: functional
[6] = system: Mus musculus; assay: Photodynamic therapy response in mice (implanted with RIF tumor) on day 10 after administering the compound (0.4 umol/kg); Complete response; type: functional, organism-based
[7] = system: Mus musculus; assay: Photodynamic therapy response in mice (implanted with RIF tumor) on day 15 after administering the compound (0.4 umol/kg); type: functional
[8] = system: Mus musculus; assay: Photodynamic therapy response in mice (implanted with RIF tumor) on day 20 after administering the compound (0.4 umol/kg); type: functional
[9] = system: Mus musculus; assay: Photodynamic therapy response in mice (implanted with RIF tumor) on day 25 after administering the compound (0.4 umol/kg);Tumor regrowth; type: functional, organism-based
[10] = system: Mus musculus; assay: Photodynamic therapy response in mice (implanted with RIF tumor)after administering the compound (0.4 umol/kg); Decreased; type: functional, organism-based

| SMILES | logP [1] | Ratio [2] | Tumor response [3] [%] | Tumor uptake [4] [µM/kg] | Response [5] [%] | Response [6] | Response [7] [%] | Response [8] [%] | Response [9] | Response [10] |
| --- | --- | --- | --- | --- | --- | --- | --- | --- | --- | --- |
| CCCCCCNC(=O)CC[C@@H]1c2nc(cc3[nH]c(cc4[nH]c(cc5nc6c2C(=O)N(CCCCCC)C(=O)C6=C5C)c(CC)c4C)c(C(C)OCCCCC)c3C)[C@H]1C (stereo partly specified) | 11.3 | 3.32 | 20 | 7.33 |  |  |  |  |  |  |
| CCCCCCCCCCOC(C)C1=C(C)c2cc3nc(c4c5[nH]c(cc6[nH]c(cc1n2)c(C)c6CC)c(C)c5C(=O)N(CCCCCC)C4=O)[C@@H](CCC(=O)OC)[C@@H]3C (stereo partly specified) |  | 3.23 | 100 | 4.2 |  |  |  |  |  |  |
| CCCCCCCOC(C)C1=C(C)c2cc3nc(c4c5[nH]c(cc6[nH]c(cc1n2)c(C)c6CC)c(C)c5C(=O)N(CCCCCC)C4=O)[C@@H](CCC(=O)NCCCCCC)[C@@H]3C (stereo partly specified) |  | 3.59 | 50 | 6.58 |  |  |  |  |  |  |
| CCCCCCNC(=O)CC[C@@H]1c2nc(cc3[nH]c(cc4[nH]c(cc5nc6c2C(=O)N(CCCCCC)C(=O)C6=C5C)c(CC)c4C)c(C(C)OC)c3C)[C@H]1C (stereo partly specified) | 9.3 | 4.35 | 0 | 6.4 |  |  |  |  |  |  |
| CCCCCCNC(=O)CC[C@@H]1c2nc(cc3[nH]c(cc4[nH]c(cc5nc6c2C(=O)N(CCCCCC)C(=O)C6=C5C)c(CC)c4C)c(C(C)OCCC)c3C)[C@H]1C (stereo partly specified) | 10.3 | 2.69 | 67 | 7 |  |  |  |  |  |  |

Further lines, with some results ahead:

| logP [1] | SMILES | Ratio [2] | Tumor response [3] [%] | Tumor uptake [4] [µM/kg] | Response [5] [%] | Response [6] | Response [7] [%] | Response [8] [%] | Response [9] | Response [10] |
| --- | --- | --- | --- | --- | --- | --- | --- | --- | --- | --- |
| 9.3 | CCCCCCN1C(=O)c2c3nc(cc4nc(cc5[nH]c(cc6[nH]c2c(c6C)C1=O)c(CC)c5C)C(C(C)OCCCC)=C4C)[C@@H](C)[C@@H]3CCC(=O)OC (stereo partly specified) | 2.22 | 100 | 12.9 |  |  |  |  |  |  |
| 10.3 | CCCCCCOC(C)C1=C(C)c2cc3nc(c4c5[nH]c(cc6[nH]c(cc1n2)c(C)c6CC)c(C)c5C(=O)N(CCCCCC)C4=O)[C@@H](CCC(=O)OC)[C@@H]3C (stereo partly specified) | 8 | 100 | 7.27 | 100 | Complete response | 80 | 60 | Complete response | Complete response |
| 11.3 | CCCCCCCCOC(C)C1=C(C)c2cc3nc(c4c5[nH]c(cc6[nH]c(cc1n2)c(C)c6CC)c(C)c5C(=O)N(CCCCCC)C4=O)[C@@H](CCC(=O)OC)[C@@H]3C (stereo partly specified) | 2.9 | 10 | 15.7 |  |  |  |  |  |  |
